# Where “and” joins values, the source holds several entries; their conditions need not be identical. Equal values may be shown once. Read-outs that look alike come from different tables or passages of the source.
# Key:
# TT cells = experiment: Growth inhibition (alamarBlue, 96 h); format: cell-based, human; details: for raw viability signal (Source Data Fig. 3b-c): replicate sets
# Ba/F3 cells = experiment: Growth inhibition assay in Ba/F3 cells (CellTiter-Glo, 72 h); format: cell-based
# [1] = test system: Ba/F3 cells expressing KIF5B–RET^G810S; experiment: as above; format: cell-based; details: replicate Sets 1-3
# LUAD-0087AS2 cells = experiment: Growth inhibition (alamarBlue, 96 h); format: cell-based, human; details: for raw viability signal (Source Data Fig. 3b-c): LUAD-0087AS2, replicate sets
# Ba/F3-CCDC6::RET = experiment: Growth inhibition assay in Ba/F3 cells (CellTiter-Glo, 72 h); format: cell-based
# [2] = test system: ECLC5 luciferase cells implanted intracranially; experiment: Intracranial efficacy study; format: in vivo, NSG mice; details: for Luminescence Data: Fig. 8e ECLC5 intracranial, individual animals
# [3] = test system: Ba/F3 KIF5B–RET^G810R allograft tumors; experiment: Subcutaneous allograft efficacy study; format: in vivo, BALB/c nude mice; details: in mm³ (unit assumed);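 also: mean tumor volume per dosing group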
# [4] = Homo sapiens, 96 h, read-out: IC50 for Inhibition of Growth (95% CI)
smiles,measurement,setting,value
COc1ccc(CN2C3CC2CN(c2ccc(-c4cc(OCC(C)(C)O)cn5ncc(C#N)c45)cn2)C3)cn1 [Selpercatinib],raw viability signal (Source Data Fig. 3b-c),TT cells; 0.01 nM,21887.2 and 26414 and 26210.1 and 12272.3 and 26926.8
same,raw viability signal (Source Data Fig. 3b-c),TT cells; 0.1 nM,22325.8 and 26539.8 and 30465.8 and 11158.3 and 24677.4
same,raw viability signal (Source Data Fig. 3b-c),TT cells; 1 nM,20930 and 26176.3 and 29470 and 9614.13 and 22745.1
same,raw viability signal (Source Data Fig. 3b-c),TT cells; 10 nM,15380.3 and 24600.1 and 21198.9 and 8183.69 and 18775.6
same,raw viability signal (Source Data Fig. 3b-c),TT cells; 100 nM,9716.19 and 12690.1 and 13114.5 and 5163.1 and 15418.2
same,raw viability signal (Source Data Fig. 3b-c),TT cells; 1000 nM,9549.4 and 11696.3 and 12426 and 4648.23 and 14095
same,raw viability signal (Source Data Fig. 3b-c),TT cells; 10000 nM,9076.49 and 11812.8 and 14226.5 and 5846.11 and 12620.2
same,IC50,TT cells; [4],23 nM
same,GI50,"Ba/F3 cells; Ba/F3 (parental), replicate Sets 1-3",3870 nM and 3570 nM
same,GI50,"Ba/F3 cells; Mus musculus, BaF3, 72 h, read-out: GI50 value (Mean ± SD), Ba/F3, CellTiter-Glo, 72 h",3980 nM
same,GI50,"Ba/F3 cells; Mus musculus, BaF3, Ba/F3 (parental), replicate Sets 1-3",4490 nM
same,GI50,[1]; Ba/3-KIF5B-RET-G810S,182 nM and 173 nM
same,GI50,"[1]; Mus musculus, BaF3, Ba/3-KIF5B-RET-G810S",143 nM
same,IC50,LUAD-0087AS2 cells; [4],11 nM
same,raw viability signal (Source Data Fig. 3b-c),LUAD-0087AS2 cells; 0.01 nM,15388.6 and 12720.2
same,raw viability signal (Source Data Fig. 3b-c),LUAD-0087AS2 cells; 0.1 nM,16047 and 13628.3
same,raw viability signal (Source Data Fig. 3b-c),LUAD-0087AS2 cells; 1 nM,15441.4 and 12355.8
same,raw viability signal (Source Data Fig. 3b-c),LUAD-0087AS2 cells; 10 nM,6632.52 and 4277.26
same,raw viability signal (Source Data Fig. 3b-c),LUAD-0087AS2 cells; 100 nM,5690.09 and 3170.8
same,raw viability signal (Source Data Fig. 3b-c),LUAD-0087AS2 cells; 1000 nM,5599.27 and 2744.81
same,raw viability signal (Source Data Fig. 3b-c),LUAD-0087AS2 cells; 10000 nM,3412.76 and 2132.34
same,GI50,"Ba/F3-CCDC6::RET; BaF3/CCDC6-RET, 72 h, read-out: GI50 value (Mean ± SD), Ba/F3-CCDC6::RET, CellTiter-Glo, 72 h",21.4 ± 7.5 nM
same,GI50,"Ba/F3-CCDC6::RET; read-out: GI50 values, Ba/F3-CCDC6::RET, individual sets (replicate experiments)",13 nM and 27.4 nM
same,median survival time,[2]; 10 mg per kg BID,99 d of treatment
same,Area Under Curve Mean,"[2]; Fig. 8e (middle panel) ECLC5 luminescence, 10 mg/kg BID",27186332000
same,Luminescence Data,"[2]; 10 mg/kg BID, treatment day 0 (=1)",1
same,Luminescence Data,"[2]; 10 mg/kg BID, treatment day 5, day 0 = 1, 10 mg/kg",1.5865 and 1.821 and 1.255 and 0.4814 and 3.25 and 0.8886
same,Luminescence Data,"[2]; 10 mg/kg BID, treatment day 12, day 0 = 1, 10 mg/kg",3.019 and 2.275 and 2.308 and 0.7742 and 2.674 and 1.142
same,Luminescence Data,"[2]; 10 mg/kg BID, treatment day 18, day 0 = 1, 10 mg/kg",4.468 and 13.8627 and 3.677 and 17.2275 and 4.61 and 2.3303
same,Luminescence Data,"[2]; 10 mg/kg BID, treatment day 26, day 0 = 1, 10 mg/kg",4.838 and 8.783 and 2.8 and 90.8154 and 2.049 and 2.4586
same,Luminescence Data,"[2]; 10 mg/kg BID, treatment day 33, day 0 = 1, 10 mg/kg",19.3932 and 14.9637 and 7.347 and 180.944 and 3.353 and 5.483
same,Luminescence Data,"[2]; 10 mg/kg BID, treatment day 40, day 0 = 1, 10 mg/kg",20.6751 and 16.1418 and 17.1097 and 476.137 and 5.8 and 4.798
same,Luminescence Data,"[2]; 10 mg/kg BID, treatment day 46, day 0 = 1, 10 mg/kg",53.1577 and 52.4694 and 35.0274 and 881.545 and 19.3617 and 18.0494
same,Luminescence Data,"[2]; 10 mg/kg BID, treatment day 55, day 0 = 1, 10 mg/kg",200.4 and 271.183 and 155.59 and 1935.62 and 78.0003 and 75.6827
same,Luminescence Data,"[2]; 10 mg/kg BID, treatment day 61, day 0 = 1, 10 mg/kg",323.18 and 414.363 and 232.604 and 1527.04 and 186.289 and 64.6294
same,Luminescence Data,"[2]; 10 mg/kg BID, treatment day 68, day 0 = 1, 10 mg/kg",561.802 and 676.257 and 207.714 and 1673.82 and 333.171 and 210.62
same,Luminescence Data,"[2]; 10 mg/kg BID, treatment day 75, day 0 = 1, 10 mg/kg",570.505 and 1484.59 and 792.807 and 4751.93 and 432.014 and 174.469
same,Luminescence Data,"[2]; 10 mg/kg BID, treatment day 82, day 0 = 1, 10 mg/kg",999.294 and 1867.47 and 955.043 and 3557.94 and 547.305 and 464.239
same,Tumor Volume Mean,"[3]; Fig. 7c Ba/F3-KIF5B::RET G810R, selpercatinib 10 mg/kg BID, day 1",153.47
same,Tumor Volume Mean,"[3]; Fig. 7c Ba/F3-KIF5B::RET G810R, selpercatinib 10 mg/kg BID, day 4",195.84
same,Tumor Volume Mean,"[3]; Fig. 7c Ba/F3-KIF5B::RET G810R, selpercatinib 10 mg/kg BID, day 8",432.66
same,Tumor Volume Mean,"[3]; Fig. 7c Ba/F3-KIF5B::RET G810R, selpercatinib 10 mg/kg BID, day 11",585.46
same,Tumor Volume Mean,"[3]; Fig. 7c Ba/F3-KIF5B::RET G810R, selpercatinib 10 mg/kg BID, day 15",999.76
same,Tumor Volume Mean,"[3]; Fig. 7d Ba/F3-KIF5B::RET G810R, selpercatinib 30 mg/kg BID, day 1",157.6
same,Tumor Volume Mean,"[3]; Fig. 7d Ba/F3-KIF5B::RET G810R, selpercatinib 30 mg/kg BID, day 4",307.7
same,Tumor Volume Mean,"[3]; Fig. 7d Ba/F3-KIF5B::RET G810R, selpercatinib 30 mg/kg BID, day 8",440.3

# — paper PMC10518257 (Nature Cancer, 2023)
